Source: US6517812B1, “Inhibition of psychostimulant-induced and nicotine-induced craving” (The General Hospital Corporation, priority 1997, dated 2003)

Experiments:
[1] = test system: cocaine-dependent volunteers; experiment: Physiological monitoring (HR, MBP, ETCO2, ECG) after double-blind IV cocaine infusion; assay type: in vivo; details: human
Description: Subjects were admitted to the MGH GCRC for the screening procedures; those meeting all criteria were boarded overnight on the unit in preparation for imaging the following day. The following morning the subject had bilateral intravenous catheters placed (right forearm for cocaine or saline infusion, left forearm for serial venous blood sampling for quantitative cocaine levels). Scanning was performed between 11AM and 3PM during which the subject was in the scanner for two periods of time each lasting from 45 to 90 minutes. During each scanning period, one infusion was given, either cocaine (0.6 mg/kg, maximum dose 40 mg) or saline (both in a volume of 10 cc given over 30 seconds IV) in a randomized, double blind order. Five different scans were performed during each period. The infusion itself was made 5 minutes into an 18 minute long blood oxygen level dependent (BOLD) scan. The BOLD infusion scan was bracketed by flow-sensitive alternating inversion recovery (FAIR) and visual stimulation BOLD scans (the data from these scans were used to delineate the global vs. regional signal changes from cocaine). The time interval between functional scans within a period was kept to a minimum. The entire sequence of 5 functional scans was completed within 45-60 minutes. The subject was removed from the scanner for a 15-30 minute rest and then was returned to magnet and the sequence was repeated for the second infusion. A minimum of two hours had to pass between each double-blind infusion.
Physiologic monitoring was conducted using an In Vivo OmniTrak 3100 patient monitoring system (Orlando, Fla.) modified to permit on-line computer acquisition of physiologic measurements. Each subject was fitted with chest leads to record the electrocardiogram (ECG) and to measure heart rate (HR), a nasal cannula to measure respiratory rate and end-expiratory carbon dioxide (ETCO2), and a blood pressure cuff to measure non-invasively systemic mean blood pressure (MBP). The temporal resolution of the system for sampling blood pressure was once every two minutes.
Precautions taken to ensure safe conduct of the study included use of ACLS trained personnel, frequent running of mock codes with clocked performance of tasks and strict definition of individual tasks, and presence of a cardiologist at the time of all infusions whose sole responsibility was to monitor subject safety. Before and after completion of both infusions, subjects underwent a 12-lead ECG to determine the absence of any interval change from the experiments. Because of magnetohydrodynamic effects on the ECG tracing, a baseline rhythm strip was obtained prior to each drug infusion and all subsequent tracings were compared to that one.
Physiological Data: The data analysis and graphing program IGOR (WaveMetrics, Inc.) was used to analyze the data. Data were first analyzed by a 2 way ANOVA with drug treatment (saline, cocaine) and time of measurement as factors. When significant F values were obtained for one of the physiologic measures, individual time points were compared by post-hoc t-tests to determine if (and at what times) the change from baseline was significant. The Bonferroni correction for multiple comparisons was used; the criteria for significance at the 0.05 level was p<0.007.

[2] = test system: human brain, limbic and paralimbic regions; experiment: BOLD fMRI of brain activation after cocaine infusion (KS maps, pre vs post infusion); assay type: in vivo; details: voxels p<10^−5, four subjects
Description: Scanning was performed with a quadrature head-coil and a 1.5 T MR scanner (General Electric) modified for echo-planar imaging (Advanced NMR). Imaging involved the following protocol. First, a sagittal localizer scan [conventional T1-weighted spoiled gradient refocused gradient echo (SPGR) sequence; through-plane resolution=2.8 mm; 60 slices] was performed to orient, for subsequent scans, 15 contiguous axial slices covering the whole brain. This scan was also used as the structural scan for Talairach transformation. Next, an automated shimming technique was used to optimize B0 homogeneity (Reese et al., 1995, J. Magn. Reson. Imaging 5:739-745). This was followed by a SPGR T1-weighted flow-compensated scan (resolution=1.6 mm×1.6 mm×8 mm) scan, which was primarily obtained to aid Talairach transformation during data analysis (see Breiter et al., 1996, Arch. Gen. Psychiatry 53:595-606). The fourth scan was a T1-weighted echo planar inversion recovery sequence (TI=1200 msec, in-plane resolution=1.57 mm) for high-resolution structural images to be used in preliminary statistical maps, but not with Talairach transformed or averaged maps. Finally, BOLD imaging was performed using an asymmetric spin echo T2*-weighted sequence (TR=8000, TE=50, 180 refocusing pulse offset by −25 ms; FOV=40×20 cm; in-plane resolution=3.125 mm; through-plane resolution=8 mm; 15 contiguous axial slices covering the whole brain) to measure ‘activation’ (local changes in blood flow and oxygenation) (Kwong et al., 1992, Proc. Natl. Acad. Sci. 89:5675-5679; Ogawa et al., 1992, Proc. Natl. Acad. Sci. 89:5957-5955; Bandettini et al., 1992, Magn. Reson. Med. 25:390-397). Images were acquired interleaved for 136 time points for each infusion.
Motion correction: To reduce head motion, each subject was positioned using a bitebar, and echo-planar data was motion corrected using an algorithm (Jiang et al., 1995, Hun. Brain Mapp. 3:1-12) adapted from Woods et al (1992), and described elsewhere (Breiter et al., 1996, Arch. Gen. Psychiatry 53:595-606). […] After motion correction, time-series data were inspected to assure that no data set evidenced residual motion in the form of cortical rim or ventricular artifacts >1 voxel.
Talairach transformation: Each individual's set of infusion related functional images, along with the associated conventional structural scans, were transformed into Talairach space (Talairach et al., 1988, New York: Thieme Medical Publishers; Breiter et al., 1996, Arch. Gen. Psychiatry 53:595-606; Breiter et al., 1996, Neuron 17:875-887) and resliced in the coronal orientation over 57 slices with isotropic voxel dimensions (x,y,z=3.125 mm). […]

[3] = test system: rat frontal cortex; experiment: BOLD fMRI in drug-naive rat after IV cocaine; assay type: in vivo
Description: All procedures were carried out in accordance with NIH guidelines. Male Harlan Sprague-Dawley rats (225-300 gm) were anesthetized briefly with 1.5% halothane in oxygen for insertion of left femoral arterial and venous cannulae and placement of tracheostomy for mechanical ventilation (using a 16 gauge intravenous catheter, Inste-W, Becton Dickinson, Sandy, Utah). All wounds were infiltrated with 1% lidocaine before incision. Following surgery, the inspired halothane concentration was reduced to 0.7% and rats were paralyzed with 2 mg/kg intravenous pancuronium, followed by a continuous intravenous infusion of pancuronium at 2 mg/kg/hr. Pancuronium was dissolved in normal saline administered at 5 ml/kg/hr. Rats were mechanically ventilated (in a small animal volume controlled ventilator, Harvard Apparatus, Inc., South Natick, Mass.) with a 80/20 air/oxygen mixture, an inspiratory to expiratory ratio of 1:1, and an initial tidal volume of 3.0 ml at a rate of 40 breaths per minute. […] Arterial blood samples (150 μl) withdrawn from cannula were analyzed for arterial partial pressures of oxygen, carbon dioxide, and pH (Ciba-Coming Model 1304) before administration of drugs, and at the end of each experiment before sacrifice, to ensure animal stability. Arterial blood pressure and rectal temperature were monitored throughout the experiment. […]

[4] = test system: Male Harlan Sprague-Dawley rats; experiment: Arterial blood pressure and heart rate monitoring in rat
Description: All procedures were carried out in accordance with NIH guidelines. Male Harlan Sprague-Dawley rats (225-300 gm) were anesthetized briefly with 1.5% halothane in oxygen for insertion of left femoral arterial and venous cannulae and placement of tracheostomy for mechanical ventilation (using a 16 gauge intravenous catheter, Inste-W, Becton Dickinson, Sandy, Utah). All wounds were infiltrated with 1% lidocaine before incision. Following surgery, the inspired halothane concentration was reduced to 0.7% and rats were paralyzed with 2 mg/kg intravenous pancuronium, followed by a continuous intravenous infusion of pancuronium at 2 mg/kg/hr. Pancuronium was dissolved in normal saline administered at 5 ml/kg/hr. Rats were mechanically ventilated (in a small animal volume controlled ventilator, Harvard Apparatus, Inc., South Natick, Mass.) with a 80/20 air/oxygen mixture, an inspiratory to expiratory ratio of 1:1, and an initial tidal volume of 3.0 ml at a rate of 40 breaths per minute. Ventilation parameters were adjusted to maintain normal arterial blood gases (pH=7.40±0.01, PaCO2=40±2, PaO2=145±10). Arterial blood samples (150 μl) withdrawn from cannula were analyzed for arterial partial pressures of oxygen, carbon dioxide, and pH (Ciba-Coming Model 1304) before administration of drugs, and at the end of each experiment before sacrifice, to ensure animal stability. Arterial blood pressure and rectal temperature were monitored throughout the experiment. […] Rats torsos were wrapped in two heating blankets (Gaymar, Orchid Park, N.Y.) circulating warm water to maintain core temperature at 37-38° C. […]
Regional cortical blood flow was determined by LDF (Perimed, PF2B, Stockholm, Sweden) as described previously (Ayata, et al., 1996, J. Cereb. Blood Flow Metab., 16:539-541). […] All data were collected, stored, and analyzed using MacLab/8 data acquisition and analysis system (ADInstruments, Mountain View, Calif.). Arterial pressure was continuously monitored and the data stored; heart rate was calculated from arterial pressure pulses by the data acquisition software. […]

## COC(=O)[C@H]1[C@@H](OC(=O)c2ccccc2)C[C@@H]2CC[C@H]1N2C [cocaine]
[1]; all subjects throughout the study
  cardiac rhythm (ECG): Normal sinus rhythm
[1]; cocaine 0.6 mg/kg IV
  time for HR, MBP and ETCO2 to return to baseline: ≤ 2 h
[1]; cocaine 0.6 mg/kg IV over 30 seconds, n=17, 2 minutes post-infusion
  heart rate (HR): 79±16 bpm
[1]; cocaine 0.6 mg/kg IV, 2 minutes post-infusion
  mean blood pressure (MBP): 101±12 torr
[1]; cocaine 0.6 mg/kg IV, 5 minutes
  mean blood pressure (MBP): 111±15 torr
[1]; cocaine 0.6 mg/kg IV, by 10 minutes
  end-tidal carbon dioxide (ETCO2): 36±4 mm Hg
[1]; cocaine 0.6 mg/kg IV, n=17, 5 minutes post infusion
  heart rate (HR): 82±12 bpm
[1]; cocaine 0.6 mg/kg IV, n=17, 10 minutes post infusion
  heart rate (HR): 93±14 bpm
[2]; retest condition
  percent signal change, NAc/SCC Left: 2.3%
  percent signal change, NAc/SCC Right: 2.1%
[2]; test condition
  percent signal change, NAc/SCC Left: 3.8%
  percent signal change, NAc/SCC Right: 2.4%
[3]; cocaine 0.5 mg/kg IV, after infusion
  time of return of BOLD contrast to baseline: 20 min
[3]; cocaine 1 mg/kg IV
  maximal R2 (BOLD contrast): 2.5 ± 0.6 s⁻¹
[4]; cocaine doses above 5 mg/kg IV
  adverse cardiovascular response: profound hypotension and cardiac arrhythmia
[4]; cocaine infusion 0.5 mg/kg
  transient increase in arterial blood pressure: 5-10 mm Hg
